Measurements reported in US8883856B2, “Compositions and methods for the treatment of inflammatory diseases using topoisomerase inhibitors” (priority 2000, dated 2014).

Experiments:
caspase 3 = experiment: Caspase 3 activation in neutrophils (caspACE assay system); assay type: cell-based, human
Description: The inflammation associated with many forms of arthritis is thought to arise from the presence of large numbers of immune cells, such as neutrophils, in the synovial joints of humans. The extended inflammation associated with crystal induced arthritis arises from the interaction of neutrophils with crystals in the synovial joint. One reason the extended duration of the inflammation in this disease may be due to the inhibition of neutrophil apoptosis by crystals. This inhibition may result in the neutrophils remaining in the joint for extended periods. Compounds that overcome this crystal induced suppression of neutrophil apoptosis therefore allow the more rapid clearance of these cells from the joint with the appropriate abatement of inflammation. The process of apoptosis involves the endonuclease driven cleavage of DNA into fragments which may be visualized as a ladder of bands in an agarose gel electrophoresis experiment. Other assays that may be used include caspase 3 quantitation or measurements of cytoplasmic DNA concentration. […] Agents that inhibit caspase activation levels or reduce cytoplasmic DNA are pro-survival (potentially inflammatory) and agents that promote are pro-apoptotic and anti-inflammatory. The use of these methods and their role in neutrophil affected inflammation is described in detail in Tudan et al. J Rheumatol. 27 p 2463-72. 2000.
Methods: Agarose gel banding/laddering of 180 base pairs: Neutrophils were separated from fresh human blood by standard methods (dextran sedimentation and ficoll paque centrifugation) and suspended in buffer at a concentration of 1×10^6 cells/ml. The cells were then incubated with crystals of calcium pyrophosphate dihydrate (CPPD) for 1 hours at 37° C. The cells were then incubated with or without camptothecin (0.1 uM) for 4 hours at 37° C. Neutrophil aliquots (1×10^6 cells) from different conditions were resuspended in 480 μl of lysis buffer (0.6% SDS, 10 mM Tris, 1 mM EDTA (pH 7.0)) and after vigorous mixing were allowed to sit on ice for 20 min after addition of 120 μl of 5M NaCl. In caspase 3 and DNA fragmentation assays a milder detergent (Triton) was used to lyse only the plasma membrane of the cells so that cytoplasmic contents (caspase 3 or DNA fragments) could be assayed. Samples were sedimented at 14,000 rpm at 4° C. for 20 min. The pellet was dried and resuspended in phenol:chloroform. Four hundred fifty μl of the upper phase was added to a new tube, which was then charged with 950 μl of […] and held at −20° C. for 10 min. The DNA was sedimented at 14,000 rpm (4° C.) and carefully washed in 75% ethanol without disturbing the pellet. The DNA was dried at 37° C. and then resuspended in 20 μl sample buffer (50% TBE with 1 μl of 1 ng/ml RNase A (Pharmacia)). The samples were vortexed and allowed to stand at 37° C. for 10 min. Five μl of loading dye (20% Ficoll Paque (Pharmacia), 0.1% bromophenol blue, 0.1% xylene cyanole) was added. Electrophoresis was carried out in 2% agarose at 80 mA, and the gel was then stained with ethidium bromide (Pharmacia) and photographed under U.V. illumination.
Caspase 3 activation was assayed using a commercial kit for this enzyme (caspACE assay system, Promega Scientific) and cyotplasmic DNA was assayed using a commercial kit (Cell death detection ELISA-Boehringer—Mannheim).

[1] = Encapsulation efficiency of drug in polymer microspheres; assay type: physicochemical
Method: Camptothecin (Sigma) was dissolved in a 5% (w/v) solution of poly(L-lactic acid) (2K molecular weight, Polysciences) in various ratios of drug to polymer (from 0.5:100 to 8:100 (w/w). Ten ml of each of these solutions were pipetted into 100 ml of a 2.5% (w/v) solution of poly vinyl alcohol (PVA, mol wt 13-21K Aldrich) with over head stirring at 500 rpm. After two hours stirring the PVA/microsphere suspension was poured through 90 um then 50 um sieves to collect the 50-90 um fraction of microspheres. These spheres were then washed in distilled water three times and dried under vacuum. The dried spheres were obtained in high yields (over 50% of the initial polymer was recovered as microspheres in the 50-90 um size range). […] Encapsulation efficiency was measured by dissolving microspheres in 1 ml of dichlomethane, extracting the drug into a 60/40 (v/v) acetonitrile water mixture and analysis by visible absorbance at 370 nm. The encapsulation efficiency of the drug in the polymer varied with the initial ratio of drug to polymer with high ratios resulting in a high level of encapsulation.
Plumbagin (Sigma) was dissolved in a 5% (w/v) solution of poly (L-lactic acid) (2K molecular weight, Polysciences) to give a final ratio of drug to polymer of 1:10 (w/w). Ten ml of this solution was pipetted into 100 ml of a 2.5% (w/v) solution of poly vinyl alcohol (PVA, mol wt 13-21K Aldrich) with over head stirring at 500 rpm. After two hours stirring the PVA/microsphere suspension was poured through 90 um then 50 um sieves to collect the 50-90 um fraction of microspheres. These spheres were then washed in distilled water three times and dried under vacuum. The dried spheres were obtained in high yields with over 50% of the initial polymer being recovered in microspheres in the 50-90 um size range. The microspheres were dense yellow in colour indicating high encapsulation efficiency of the drug plumbagin. The encapsulation efficiency was measured by dissolving the microspheres in 1 ml of dichlomethane, extracting the drug into a 60/40 (v/v) acetonitrile water mixture and analysis by visible absorbance at 420 nm. The encapsulation efficiency of the drug in the polymer was 80%.
(§1) Ten ml of each solution was pipetted into 100 ml of a 2.5% (w/v) solution of poly vinyl alcohol (PVA, mol wt 13-21K Aldrich) with over head stirring at 500 rpm. After two hours stirring the PVA/microsphere suspension was poured through 90 um then 50 um sieves to collect the 50-90 um fraction of microspheres. These spheres were then washed in distilled water three times and dried under vacuum. The dried spheres were obtained in high yields (over 50% of the initial polymer was recovered as microspheres in the 50-90 um size range).
as §1, with “vacuum.” for “vacuum. The dried spheres were obtained in high yields (over 50% of the initial polymer was recovered as microspheres in the 50-90 um size range).”

[2] = Example 19 microspheres 50-90 um, drug to polymer 1:40 (beta-lapachone) or 1:100 (etoposide, doxorubicin)
[3] = polycaprolactone microspheres 50-90 um, drug to polymer 1:50

**Q.** Which “caspase 3 activation in neutrophils” value (caspase 3) does the source give for `CC1(C)CCC2=C(O1)c1ccccc1C(=O)C2=O` [beta-lapachone] here?
**A.** Its value is “induced an increase in the activation of caspase 3 levels”.

**Q.** What about the “encapsulation efficiency of the drug in the polymer” value (from here on “encapsulation efficiency”) [1, 2] of the same compound?
**A.** Its value is 97%.

**Q.** Which “caspase 3 activation in neutrophils” value (caspase 3) does the source give for `CC[C@@]1(O)C(=O)OCc2c1cc1n(c2=O)Cc2cc3ccccc3nc2-1` [camptothecin] here?
**A.** The value was “induced high levels of caspase 3 activation”.

**Q.** Which “caspase 3 activation in neutrophils” value (caspase 3) does the source give for `COc1cccc2c1C(=O)c1c(O)c3c(c(O)c1C2=O)C[C@@](O)(C(=O)CO)C[C@@H]3O[C@H]1C[C@H](N)[C@H](O)[C@H](C)O1` [doxorubicin] here?
**A.** The value was “induced an increase in the activation of caspase 3 levels”.

**Q.** What about the “encapsulation efficiency” value [1, 2] of the same compound?
**A.** Its value is 95%.

**Q.** Which “caspase 3 activation in neutrophils” value (caspase 3) does the source give for `COc1cc([C@@H]2c3cc4c(cc3[C@@H](O[C@@H]3O[C@@H]5CO[C@@H](C)O[C@H]5[C@H](O)[C@H]3O)[C@H]3COC(=O)[C@H]23)OCO4)cc(OC)c1O` [etoposide] here?
**A.** The value was “induced an increase in the activation of caspase 3 levels”.

**Q.** Which “encapsulation efficiency” value [1, 3] does the source give for `CC1=CC(=O)c2ccccc2C1=O` [menadione] here?
**A.** The value was 73%.

**Q.** What does the source list for `CC1=CC(=O)c2c(O)cccc2C1=O` [plumbagin]?
**A.** encapsulation efficiency of the drug in the polymer ([1]; poly(L-lactic acid) 2K microspheres 50-90 um, drug to polymer 1:10): 80%; encapsulation efficiency of the drug in the polymer [1, 3]: 85%
